In US20070032471A1, “Active substance combination comprising a 2,5-dihydroxybenzenesulfonic compound and a potassium ion channel modulator” (LABORATORIOS DEL DR. ESTEVE S.A., priority 2003, published 2007):

Key:
[1] = tested on: diabetic rats; experiment: Erectile response to cavernosal nerve electrical stimulation in anaesthetized diabetic rats; type: in vivo, rat; settings: administered alone, intravenous administration
Description: The in-vivo activity of the active substance combination is tested as described in the reference of Saénz Tejada et al. in International Journal of Impotence Research 2003, 15, 90-93 under “Methods—Erectile responses to cavernosal nerve stimulation in anaesthetized rats”, which is hereby incorporated by reference and forms part of the disclosure. The erectile response to cavemosal nerve electrical stimulation in anaesthetized diabetic rats was determined as described above.

[2] = tested on: human penile resistance arteries; experiment: Effect of calcium dobesilate on relaxation induced by Ca2+-activated K+-channel activation (NS1619) in human penile arteries; settings: calcium dobesilate 10 μM for 30 min; norepinephrine-contracted arteries; NS1619 1 nM to 10 μM
Description: (§1) Penile small arteries, […] arteries (lumen diameter 150-400 μm), which are the terminal branches of deep penile arteries, are dissected by carefully removing the adhering trabecular tissue, and arterial ring segments (2 mm long) and are subsequently mounted on two 40 μm wires on microvascular Halpern-Mulvany myographs (J. P. Trading, Aarhus, Denmark) for isometric tension recordings. The vessels are allowed to equilibrate for 30 min in physiological salt solution (PSS) of the following composition (mmol/l): NaCl 119, KCl 4.6, CaCl2 1.5, MgCl2 1.2, NaHCO3 24.9, glucose 11, KH2PO4 1.2, EDTA 0.027 at 37° C. continuously bubbled with 95% 02/5% CO2 mixture to maintain a pH of 7.4. Passive tension and internal circumference of vascular segments when relaxed in situ under a transmural pressure of 100 mmHg (L100), are determined. […] The preparations are then exposed to 125 mM K^+ (KPSS, equimolar substitution of […] in PSS) and the contractile response is measured. […] At this time, responses to NS1619 are again evaluated in NE-contracted arteries. […] Relaxation responses are expressed as percentage of total relaxation (loss in tone) induced by the addition of 0.1 mmol/l papaverine HCl to the chambers at the end of the experiment. All data are expressed as mean±standard error. […]

[3] = tested on: human penile resistance arteries; experiment: Effect of calcium dobesilate on relaxation induced by K(ATP)-channel activation (pinacidil) in human penile arteries; settings: calcium dobesilate 10 μM for 30 min; norepinephrine-contracted arteries; pinacidil 1 nM to 1 mM
Description: as §1, with “pinacidil” for “NS1619”

| SMILES | erectile response ([1]; 0.3 mg/kg or 5 mg/kg) | potentiation of relaxant responses induced by K(Ca) channel activation [2] | potentiation of relaxation induced by activation of K(ATP) channels with pinacidil [3] | erectile response ([1]; 10 mg/kg) |
| --- | --- | --- | --- | --- |
| O=c1[nH]c2cc(C(F)(F)F)ccc2n1-c1cc(C(F)(F)F)ccc1O [NS1619, 1-[2-Hydroxy-5-(trifluoromethyl)phenyl]-5-(trifluoromethyl)-1,3-dihydro-2H-benzimidazol-2-one] | do not modify the erectile response |  |  |  |
| O=S(=O)(O)c1cc(O)ccc1O [calcium dobesilate, calcium 2,5-dihydroxybenzenesulfonate] |  | strongly potentiates | significantly potentiates | do not modify the erectile response |
